From patent publication US20070027216A1, “NOVEL HYDROCHLORIDE SALTS OF LEVODOPA” (priority 2005, published 2007)

How the values were obtained:
Aqueous solubility = type: physicochemical; settings: water, 25 °C; at about 25 degrees C.
Description: To a slurry containing levodopa (15.1 g, 0.0766 mol) in acetonitrile (750 ml) was added concentrated hydrochloric acid (7.0 mL, 0.0781 mol) dropwise with stirring. Addition of hydrochloric acid to the slurry caused it to form a clear solution followed by precipitation of levodopa hydrochloride. The solid material was collected by filtration and dried under a flow of nitrogen overnight. The solid was characterized using PXRD (Bruker), DSC, TGA and Raman spectroscopy.

[1] = In vitro dissolution of fast-dissolve tablets in SGF (simulated gastric fluid); type: physicochemical; settings: 50 rpm, FIG. 5; for time to realize >90% dissolved: about 400 mg tablet, target 100 mg levodopa, lactose filler, 200 mL SGF pH 2.0, 37 degrees C., average of N=2, normalized by final concentration
Description: A dissolution study for a levodopa fast-dissolve tablet feasibility study was completed. All tablets were about 400 mg total weight and contained a target of 100 mg levodopa in four forms: levodopa free base, levodopa hydrochloride salt (from Example 1), levodopa free base jet milled (5-10 micrometers), and levodopa free base jet milled granulated with HPC-L solution. The filler for the tablet was Pharmatose DCL 14 (lactose). The dissolution was carried out in 200 mL of SGF (simulated gastric fluid) at 37 degrees C. using an overhead mixer at a speed of 50 rpm. […] In the above described dissolution study, the SGF was prepared using the following preparation: Dissolved 4 grams sodium chloride and 2 grams Triton X-100 in 2000 mL HPLC grade water. Added 1 N hydrochloric acid to the solution until the pH reached 2.0.

[2] = temperature not given; cited from earlier work

| SMILES | solubility (Aqueous solubility) [mg/mL] | time to realize >90% dissolved [1] | aqueous solubility of the free base [2] | time to >90% dissolved, free base versus hydrochloride salt ([1]; same tablets, 200 mL SGF, 37 degrees C.) |
| --- | --- | --- | --- | --- |
| Cl.NC(Cc1ccc(O)c(O)c1)C(=O)O (single isomer, unassigned; (-)) [levodopa hydrochloride salt, (−)-2-amino-3-(3,4-dihydroxyphenyl)propanoic acid hydrochloride] | 11 to 16 | ~10 min |  |  |
| N[C@@H](Cc1ccc(O)c(O)c1)C(=O)O [levodopa free base, (−)-2-amino-3-(3,4-dihydroxyphenyl)propanoic acid] |  | about 20 minutes | about 1.65 mg/mL | about twice as long |
